# The source made the active and inactive calls. The calls are words filed in the database; no cut-off is given here.
# Experiments:
# Albumin [1] = target: T1, Albumin (Bos taurus, UniProt P02769); test: Binding affinity to bovine serum albumin assessed as decrease in fluorescence intensity measured after 30 mins by fluorescence quenching method; format: ADME; conditions: cattle, isolated protein, 0.5 h
# [2] = AUC (0 to infinity) in Wistar rat at 30 mg/kg, iv by HPLC analysis; format: ADME, organism-based; set-up: time infinity, route intravenous, dose 30 mg/kg; conditions: in vivo; for AUC(0-inf): Wistar
# Rattus norvegicus [3] = test: Protection against STZ-induced inflammation in Wistar rat assessed as reduction in CD8+ T-cell infiltration into pancreatic islets at 30 mg/kg, ip administered once daily for 5 weeks and measured on day 35 by […] based analysis; format: functional, organism-based
# [4] = Aggregation property of the compound assessed as critical micelle concentration by fluorescence based analysis; format: physicochemical
# Rattus norvegicus [5] = test: Antidiabetic activity against STZ-induced diabetic Wistar rat model assessed as increase in plasma insulin level at 30 mg/kg, ip administered once daily for 5 weeks and measured after 3 to 5 weeks; format: functional, organism-based; conditions: time 3-5 weeks
# Rattus norvegicus [6] = test: Protection against STZ-induced oxidative stress-mediated liver toxicity in Wistar rat assessed as reduction in plasma ASAT level at 30 mg/kg, ip administered once daily for 5 weeks measured after 3 to 5 weeks; format: functional, organism-based; conditions: time 3-5 weeks
# [7] = Initial plasma concentration in Wistar rat at 30 mg/kg, iv by HPLC analysis; format: ADME, organism-based
# [8] = MRT in Wistar rat at 30 mg/kg, iv measured after 24 hrs by HPLC analysis; format: ADME, organism-based; conditions: in vivo
# MIN6 [9] = test: Cytoprotective activity against cytokine-mediated cytotoxicity in mouse MIN6 cells assessed as increase in cell viability at 20 uM equiv. LSF incubated for 48 hrs in presence of cocktail of cytokines TNF-alpha/IL-1-beta/IFN-gamma by MTT assay; format: functional, cell-based
# [10] = AUMC (0 to infinity) in Wistar rat at 30 mg/kg, iv by HPLC analysis; format: ADME, organism-based; conditions: in vivo
# Rattus norvegicus [11] = test: Protection against STZ-induced oxidative stress-mediated liver toxicity in Wistar rat assessed as reduction in plasma ALAT level at 30 mg/kg, ip administered once daily for 5 weeks measured after 3 to 5 weeks; format: functional, organism-based; conditions: time 3-5 weeks
# Erythrocyte = test: Induction of hemolysis in Wistar rat RBC at 20 uM equiv. LSF measured after 1 hr by spectrophotometric method; format: cell-based
# Rattus norvegicus [12] = test: Protection against STZ-induced renal toxicity in Wistar rat assessed as reduction in plasma uric acid level at 30 mg/kg, ip administered once daily for 5 weeks measured after 3 to 5 weeks; format: functional, organism-based; conditions: time 3-5 weeks
# Rattus norvegicus [13] = test: Protection against STZ-induced dyslipidemia in Wistar rat assessed as reduction in plasma triglyceride level at 30 mg/kg, ip administered once daily for 5 weeks measured after 3 to 5 weeks; format: functional, organism-based; conditions: time 3-5 weeks
# [14] = Elimination rate constant in Wistar rat at 30 mg/kg,iv measured after 24 hrs by HPLC analysis; format: ADME, organism-based; conditions: in vivo
# Rattus norvegicus [15] = test: Protection against STZ-induced dyslipidemia in Wistar rat assessed as reduction in plasma cholesterol level at 30 mg/kg, ip administered once daily for 5 weeks measured after 3 to 5 weeks; format: functional, organism-based; conditions: time 3-5 weeks
# Rattus norvegicus [16] = test: Protection against STZ-induced inflammation in Wistar rat assessed as reduction in CD4+ T-cell infiltration into pancreatic islets at 30 mg/kg, ip administered once daily for 5 weeks and measured on day 35 by […] based analysis; format: functional, organism-based
# [17] = Half life in Wistar rat at 30 mg/kg, iv measured after 24 hrs by HPLC analysis; format: ADME, organism-based; conditions: in vivo; for half-life: Wistar
# [18] = AUMC (0 to t) in Wistar rat at 30 mg/kg, iv measured after 24 hrs by HPLC analysis; format: ADME, organism-based; conditions: in vivo
# [19] = Volume of distribution in Wistar rat at 30 mg/kg, iv measured after 24 hrs by HPLC analysis; format: ADME, organism-based; conditions: in vivo
# [20] = Drug uptake in mouse MIN6 cells assessed as lisofylline-level in cell lysates at 20 uM equiv. LSF measured after 6 hrs by HPLC analysis; format: ADME, subcellular; conditions: min6, 6 h
# [21] = AUC (0 to t) in Wistar rat at 30 mg/kg, iv measured after 24 hrs by HPLC analysis; format: ADME, organism-based; set-up: route intravenous, time 24 hrs, dose 30 mg/kg; conditions: in vivo
# MIN6 [22] = test: Cytotoxicity against mouse MIN6 cells assessed as cell viability at 20 uM equiv. LSF measured after 48 hrs by MTT assay; format: cell-based; conditions: min6, 48 h
# Rattus norvegicus [23] = test: Protection against STZ-induced pancreatic beta cell destruction in Wistar rat assessed as proper arrangement of islets at 30 mg/kg, ip administered once daily for 5 weeks and measured on day 35 by Hematoxylin and eosin staining based analysis; format: functional, organism-based
# Rattus norvegicus [24] = test: Antidiabetic activity against STZ-induced diabetic Wistar rat model assessed as decrease in fasting blood glucose level at 30 mg/kg, ip administered once daily for 5 weeks and measured after 3 weeks by glucometric analysis; format: functional, organism-based
# Rattus norvegicus [25] = test: Antidiabetic activity against STZ-induced diabetic Wistar rat model assessed as decrease in fasting blood glucose level at 30 mg/kg, ip administered once daily for 5 weeks and measured after 5 weeks by glucometric analysis; format: functional, organism-based
# Rattus norvegicus [26] = test: Protection against STZ-induced pancreatic beta cell destruction in Wistar rat assessed as proper arrangement of islets at 15 mg/kg, ip administered once daily for 5 weeks and measured on day 35 by Hematoxylin and eosin staining based analysis; format: functional, organism-based
# [27] = AUC (0 to t) in Wistar rat at 15 mg/kg, iv measured after 24 hrs by HPLC analysis; format: ADME, organism-based; set-up: route intravenous, dose 15 mg/kg, time 24 hrs; conditions: in vivo
# Rattus norvegicus [28] = test: Antidiabetic activity against STZ-induced diabetic Wistar rat model assessed as decrease in fasting blood glucose level at 15 mg/kg, ip administered once daily for 5 weeks and measured after 3 weeks by glucometric analysis; format: functional, organism-based
# [29] = AUMC (0 to infinity) in Wistar rat at 15 mg/kg, iv by HPLC analysis; format: ADME, organism-based; conditions: in vivo
# [30] = Volume of distribution in Wistar rat at 15 mg/kg, iv measured after 24 hrs by HPLC analysis; format: ADME, organism-based; conditions: in vivo
# [31] = AUC (0 to infinity) in Wistar rat at 15 mg/kg, iv by HPLC analysis; format: ADME, organism-based; set-up: time infinity, route intravenous, dose 15 mg/kg; conditions: in vivo
# Rattus norvegicus [32] = test: Antidiabetic activity against STZ-induced diabetic Wistar rat model assessed as decrease in fasting blood glucose level at 15 mg/kg, ip administered once daily for 5 weeks and measured after 5 weeks by glucometric analysis; format: functional, organism-based
# [33] = MRT in Wistar rat at 15 mg/kg, iv measured after 24 hrs by HPLC analysis; format: ADME, organism-based; conditions: in vivo
# [34] = Initial plasma concentration in Wistar rat at 15 mg/kg, iv by HPLC analysis; format: ADME, organism-based
# [35] = Clearance in Wistar rat at 15 mg/kg, iv measured after 24 hrs by HPLC analysis; format: ADME, organism-based; conditions: in vivo
# [36] = Elimination rate constant in Wistar rat at 15 mg/kg,iv measured after 24 hrs by HPLC analysis; format: ADME, organism-based; conditions: in vivo
# [37] = AUMC (0 to t) in Wistar rat at 15 mg/kg, iv measured after 24 hrs by HPLC analysis; format: ADME, organism-based; conditions: in vivo
# [38] = Half life in Wistar rat at 15 mg/kg, iv measured after 24 hrs by HPLC analysis; format: ADME, organism-based; conditions: in vivo
# Rattus norvegicus [39] = test: Antidiabetic activity against STZ-induced diabetic Wistar rat model assessed as decrease in mortality at 30 mg/kg, ip administered once daily for 5 weeks; format: functional, organism-based
# Albumin [40] = target: T1, Albumin; test: Binding affinity to bovine serum albumin assessed as bathochromic peak shift measured after 30 mins by fluorescence quenching method; format: ADME; conditions: cattle, isolated protein, 0.5 h
# [41] = Clearance in Wistar rat at 30 mg/kg, iv measured after 24 hrs by HPLC analysis; format: ADME, organism-based; conditions: in vivo
# [42] = Prodrug release in rat plasma assessed as intact parent compound remaining measured after 72 hrs by HPLC analysis; format: ADME, cell-free
# T1 sequence (P02769 whole entry): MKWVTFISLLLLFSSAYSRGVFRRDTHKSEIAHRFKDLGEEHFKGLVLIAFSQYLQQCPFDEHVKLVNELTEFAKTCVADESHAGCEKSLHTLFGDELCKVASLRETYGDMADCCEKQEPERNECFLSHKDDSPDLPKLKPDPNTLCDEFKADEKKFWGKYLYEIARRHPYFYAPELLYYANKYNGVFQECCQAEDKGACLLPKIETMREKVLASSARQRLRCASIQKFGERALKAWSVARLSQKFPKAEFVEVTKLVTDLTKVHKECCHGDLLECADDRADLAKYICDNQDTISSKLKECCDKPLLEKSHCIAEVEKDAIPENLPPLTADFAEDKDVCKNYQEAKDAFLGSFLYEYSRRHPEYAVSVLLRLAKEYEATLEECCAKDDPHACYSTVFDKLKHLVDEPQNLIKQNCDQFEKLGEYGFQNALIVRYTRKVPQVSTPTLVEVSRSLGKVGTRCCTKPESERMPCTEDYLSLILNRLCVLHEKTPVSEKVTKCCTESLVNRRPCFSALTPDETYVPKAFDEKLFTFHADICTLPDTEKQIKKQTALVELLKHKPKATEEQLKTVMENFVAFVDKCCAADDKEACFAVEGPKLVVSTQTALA
Structure (SMILES),Kb (Albumin [1]),Activity (Rattus norvegicus [3]),CMC [4] [µg/mL],Activity (Rattus norvegicus [5]),Activity (Rattus norvegicus [6]),C0 [7] [ng/mL],Activity (MIN6 [9]),AUMC [10] [ng·h²/mL],Activity (Rattus norvegicus [11]),Activity (Erythrocyte),Activity (Rattus norvegicus [12]),Activity (Rattus norvegicus [13]),k el at 24 h [14] [s⁻¹],Activity (Rattus norvegicus [15]),Activity (Rattus norvegicus [16]),AUMCt [18] [ng·h²/mL],Vd [19] [L/kg],AUC(0-t) at 24 h [21] [ng·h/mL],Activity (MIN6 [22]),Activity (Rattus norvegicus [23]),also measured
CCCCC/C=C/CC=CCCCCCCCC(=O)OC(C)CCCCn1c(=O)c2c(ncn2C)n(C)c1=O (configuration not stated),2.7 10^4L/mol,Active,0.81,Active,Active,4900,Active,98700,Active,Non-Toxic,Active,Active,6.39e-05,Active,Active,77100,2.59,16200,Non-Toxic,Active,"AUC [2]: 16984.11 ng·h/mL; MRT ([8]; Wistar, read-out: MRT): 6.55 h; half-life [17]: 3.12 h; Drug uptake [20]: Active"
CC(CCCCn1c(=O)c2c(ncn2C)n(C)c1=O)OC(=O)CCCCC1CCSS1 (configuration not stated),2.05 10^4L/mol,Active,6.31,Active,Active,4120,Active,77300,Active,Non-Toxic,Active,Active,0.000142,Active,Active,67500,1.77,13500,Non-Toxic,Active,"AUC [2]: 13838.8 ng·h/mL; Activity (Rattus norvegicus [24]): inactive; MRT ([8]; 30 mg/kg, 24 h): 5.16 h; t1/2 ([17]; 30 mg/kg, 24 h): 1.26 h; Activity (Rattus norvegicus [25]): inactive"
C[C@@H](O)CCCCn1c(=O)c2c(ncn2C)n(C)c1=O [LISOFYLLINE],6.32 10^4L/mol,–,–,–,–,–,–,–,–,–,–,–,–,–,–,–,–,–,Non-Toxic,–,Activity (Rattus norvegicus [26]): Active; AUC(0-t) at 24 h [27]: 14700 ng·h/mL; Activity (Rattus norvegicus [28]): Active; AUMC [29]: 12800 ng·h²/mL; Vd [30]: 0.962 L/kg; AUC(0-inf) [31]: 14700 ng·h/mL; Activity (Rattus norvegicus [32]): Active; MRT [33]: 0.818 h; C0 [34]: 16400 ng/mL; clearance [35]: 17 mL/min/kg; k el at 24 h [36]: 0.000257 s⁻¹; AUMCt [37]: 12100 ng·h²/mL; half-life [38]: 0.752 h
CCCCCCCCCCCCCCCC(=O)OC(C)CCCCn1c(=O)c2c(ncn2C)n(C)c1=O (configuration not stated),5.55 10^4L/mol,Active,7.4,Active,Active,267,Active,24800,Active,Non-Toxic,Active,Active,4.72e-05,Active,Active,29900,13.8,3490,Non-Toxic,Active,"AUC(0-inf) [2]: 3890 ng·h/mL; Activity (Rattus norvegicus [24]): Active; Activity (Rattus norvegicus [39]): Active; MRT ([8]; Wistar, read-out: MRT): 9.07 h; Activity (Albumin [40]): Active; half-life [17]: 3.59 h; Activity (Rattus norvegicus [25]): Active; Drug uptake [20]: Active; clearance [41]: 64.9 mL/min/kg"
CCCCCCCCC=CCCCCCCCC(=O)OC(C)CCCCn1c(=O)c2c(ncn2C)n(C)c1=O (configuration not stated),6.34 10^4L/mol,Active,7.58,Active,Active,4750,Active,43200,Active,Non-Toxic,Active,Active,4.44e-05,Active,Active,30500,15,6110,Non-Toxic,Active,"AUC(0-inf) [2]: 6640 ng·h/mL; Activity (Rattus norvegicus [24]): Active; Activity (Rattus norvegicus [39]): Active; MRT ([8]; Wistar, read-out: MRT): 7.91 h; half-life [17]: 4.44 h; Activity (Rattus norvegicus [25]): Active; Drug uptake [20]: 56 ng; Stability [42]: 9.74%; clearance [41]: 40.3 mL/min/kg"
